Tests used:
[1] = test system: B16F10 cells (mouse melanocytes); test: inhibition of α-MSH-stimulated melanin synthesis in cells; assay type: cell-based; details: 72 hours; for Melanin amount (of Control): no treatment = 100; for increase in melanin induced by α-MSH stimulation: 100 nM α-MSH, peptide 1 and 10 μM
Description: • 1. […] Specifically, 1×10^5 B16F10 cells (mouse melanocytes) were seeded into each well of a 6-well microplate with DMEM serum medium. The cells were cultured in an incubator at a temperature of 37° C. and with 5% CO2 for 24 hours. […] The concentration of each peptide in the medium was set to 1 and 10 μM. […] Afterward, to measure the amount of extracellular melanin, the supernatant was taken, and the absorbance of free melanin in the medium was measured at a wavelength of 400 nm. To measure the amount of intracellular melanin, the cells were washed with PBS after removing the medium, and then the cells were lysed with 1 M NaOH at a temperature of 60° C. for 30 minutes, and the absorbance was measured at a wavelength of 400 nm. The amount of free melanin and intracellular melanin measured by absorbance were quantified, and the results are shown in Table 2. • 3.

human dermal fibroblasts = test: immunofluorescence analysis of intracellular collagen synthesis (anti-COL1A2); assay type: cell-based; details: peptide 1 and 10 μM, 24 hours, compared to untreated control group (FIG. 3)
Description: • 1. Immunofluorescence analysis was performed to evaluate the effects of the peptides of Example 1 on intracellular collagen synthesis. • 2. Specifically, 4.5×10^4 human dermal fibroblasts were seeded into each well of a 24-well microplate along with CEFOgro Human MSC Growth Medium). The cells were cultured in an incubator at a temperature of 37° C. and with 5% CO2 for 24 hours. Next, the cells were treated with each of the peptides of Example 1, and the cells were incubated under the same conditions for 24 hours. The concentration of each peptide in the medium was set to 1 and 10 μM. Out of two control groups, one received no treatment, and the other was treated with 1 μM retinol. The cells in each well were washed with PBS and fixed by treatment with 4% formaldehyde for 15 minutes, and then the cells were treated with 0.1% TritonX-100 for 5 minutes to increase antibody permeability into the cells. The cells were washed with PBS solution and treated with anti-COL1A2 polyclonal antibodies (Santa Cruz, CA, USA) for 1 hour. Next, the cells were treated with mouse anti-goat IgG-FITC for 40 minutes. To stain the cytoskeleton, the cells were treated with Phalloidin-Rhodamin for 40 minutes. After mounting with DAPI-added reagent for cell nucleus staining, the cells were observed using a fluorescence microscope (Logosbio/CelenaS, Korea) and quantified using a program (NIS-Eliments-3.1).

RAR and RXR = test: in-situ proximity ligation assay (PLA) of physical binding between RAR and RXR in HaCaT cells; assay type: cell-based, human; details: peptide 1 and 10 μM, 30 minutes, compared to untreated control group (FIG. 1)
Description: • 1. Retinol regulates the transcription of target DNA by inducing the binding between Retinoic acid receptor (RAR) and Retinoid X Receptor (RXR). To confirm whether the peptides of Example 1 activate the binding between RXR/RAR, the effects of the peptides on the physical binding between RAR and RXR were evaluated using an in-situ proximity ligation assay (PLA) method. • 2. Specifically, 4.5×10^4 HaCaT cells (human keratinocytes) were seeded into each well of a 24-well microplate with DMEM serum medium. The cells were cultured in an incubator at a temperature of 37° C. and with 5% CO2 for 24 hours. Next, the cells were treated with each of the peptides of Example 1, and the cells were incubated under the same conditions for 30 minutes. The concentration of each peptide in the medium was set to 1 and 10 μM. The control group received no treatment. Afterward, the cells in each well were washed with PBS and fixed by treatment with 2% formaldehyde for 15 minutes, and then the cells were treated with 0.1% TritonX-100 for 5 minutes to increase antibody permeability into the cells. […] Afterward, the physical interaction of RAR and RXR antibodies was quantified by measuring luminescence signals (PLA signals) detected in each cell using a fluorescence microscope (Logosbio/CelenaS, Korea), and the results are shown in FIG. 1. • 4. […]

[2] = test system: P53 and POLII (RNA Polymerase II); test: in-situ proximity ligation assay (PLA) of physical binding between P53 and POLII in HaCaT cells; assay type: cell-based, human; details: peptide 1 and 10 μM, 30 minutes, compared to untreated control group (FIG. 2)
Description: • 1. To confirm whether the peptides of Example 1 increase the transcriptional activity of P53, which was related to cell anti-aging, cells were treated with the peptides of Example 1, and then the effects of the peptides on the physical binding between P53 and POLII (RNA Polymerase II) was evaluated using an in-situ proximity ligation assay (PLA) method. • 2. Specifically, 4.5×10^4 HaCaT cells (human keratinocytes) were seeded into each well of a 24-well microplate with DMEM serum medium. The cells were cultured in an incubator at a temperature of 37° C. and with 5% CO2 for 24 hours. Next, the cells were treated with each of the peptides of Example 1, and the cells were incubated under the same conditions for 30 minutes. The concentration of each peptide in the medium was set to 1 and 10 μM. The control group received no treatment. Afterward, the cells in each well were washed with PBS and fixed by treatment with 2% formaldehyde for 15 minutes, and then the cells were treated with 0.1% TritonX-100 for 5 minutes to increase antibody permeability into the cells. […] Afterward, the physical interaction of P53 and POLII antibodies was quantified by measuring luminescence signals (PLA signals) detected in each cell using a fluorescence microscope (Logosbio/CelenaS, Korea), and the results are shown in FIG. 2. • 4. […]

[3] = α-MSH (100 nM) + test substance 1 uM
[4] = α-MSH (100 nM) + test substance 10 uM

| Compound | Melanin amount (of Control) [1, 3] [%] | increase in melanin induced by α-MSH stimulation [1] | Melanin amount (of Control) [1, 4] [%] | collagen synthesis (human dermal fibroblasts) | physical binding between RAR and RXR (PLA signals) (RAR and RXR) | physical binding between P53 and POLII (PLA signals) [2] |
| --- | --- | --- | --- | --- | --- | --- |
| CC1=C(/C=C/C(C)=C/C=C/C(C)=C/CO)C(C)(C)CCC1 [Retinol, retinol, reference compound] | 114 |  |  |  |  |  |
| Ile-Gln-Glu-Met (IQEM) [Raragin A] | 111 | reduced | 107 | significantly increased | increased | increased |
| Thr-Val-Glu-Phe (TVEF) [Raragin B] | 109 | reduced | 106 | significantly increased | increased | increased |

From patent publication US20260232561A1, “PEPTIDE ACTIVATING RETINOIC ACID RECEPTOR, AND COSMETIC COMPOSITION CONTAINING SAME” (SUPADELIXIR INC., priority 2023, published 2026)
